Entries after “also recorded” stand apart in the source; their conditions may differ.
How the values were obtained:
RelA = target: T1, RelA (Homo sapiens, UniProt Q04206); experiment: AlphaScreen binding assay of RelA and its target DNA (control); details: second screen, 0 to 10 µM
T1 construct: FLAG; made in house; host or cells: wheat cell-free protein synthesis system (inferred from the general methods)
Text: Figure 2 Identification of a GATA3 inhibitor using the wheat cell-free drug screening system. (A) A flow chart of the high-throughput screening to identify the 3-(2,5-dimethyl-1H-pyrrol-1-yl)thiophene-2-carboxylic acid that inhibits the DNA-binding activity of GATA3. The 3-(2,5-dimethyl-1H-pyrrol-1-yl)thiophene-2-carboxylic acid was named pyrrothiogatain (pyrrole and thiofuran containing GATA3 inhibitor). (B) The results of the first screen using 9,600 compounds. In the assay, each chemical compound was used at a final concentration of 10 µM. (C) The results of the second screening that show the inhibition rate of pyrrothiogatain. The inhibition assay of GATA3 DNA-binding activity was performed in the presence of various concentrations of pyrrothiogatain (0 to 10 µM). Biotinylated FLAG-peptide was used as a control to measure the interference of compounds in the AlphaScreen assay. In addition, a binding assay of RelA and its target DNA was used as control for GATA3. (D) Electrophoretic mobility shift assay (EMSA) of GATA3 with its consensus motif containing oligonucleotide in the presence of various concentrations of pyrrothiogatain (0 to 100 µM). GATA3 consensus oligonucleotide labelled with ^32P was detected by autoradiography. […] In (B,D,E), all data are expressed as individual points of three independent experiments with error bars indicating standard deviation. […]

[1] = system: OVA-induced allergic mice; experiment: OVA-induced allergic airway inflammation model; assay type: in vivo, mouse; details: 20 mg/kg intraperitoneally every day from day 0 to 6, versus vehicle control
Protocol: C57BL/6 mice at 7 weeks old were immunized intraperitoneally with 100 µg OVA (Cat#A5503, Sigma) in 2 % aluminium hydroxide gel (Cat#vax-alu-250, InvivoGen) on day 0. The mice were challenged intranasally with 100 µg OVA in saline on days 7, 8 and 9. Pyrrothiogatain was administrated intraperitoneally at a concentration of 20 mg/kg in PBS every day from day 0 to 6. The day after the last OVA challenge, BAL fluid cells were subjected to histological examination using the Diff Quick stain (Cat#16920, Sysmex). All animal experiments received approval from the Ehime University Administrative Panel for Animal Care. All animal care was conducted in accordance with the guidelines of Ehime University.

[2] = system: GATA3-dependent IL-5 promoter activation; experiment: IL-5 promoter luciferase reporter assay in HEK293T cells; assay type: cell-based; details: PMA 30 ng/mL, 0 to 30 µM
Protocol: The IL-5 promoter activity was determined as previously described[22],[23]. In brief, HEK293T cells were co-transfected with a firefly luciferase reporter (pGL3-IL-5 promoter), a renilla luciferase plasmid, and an expression vector (pcDNA3.1) using TransIT-LTI Regent (Cat#MIR2304, Mirus). Six hours after transfection, cells were treated with pyrrothiogatain (0 to 30 µM) and PMA (30 ng/mL) for 18 hours. The luciferase activity was measured using a Dual-Luciferase Reporter Assay System (cat#E1910, Promega).

GATA3-SOX4 interaction = target: T2, GATA3-SOX4 interaction (Homo sapiens, UniProt P23771); experiment: Immunoprecipitation of GATA3 and SOX4; assay type: binding; details: 0 to 100 µM
T2 construct: we synthesized the recombinant full-length GATA3 protein with an N-terminal FLAG tag using the wheat cell-free system; made in house; host or cells: wheat cell-free protein synthesis system (WEPRO1240 kit), BirA added for biotinylation
Protocol: Co-immunoprecipitation analysis of GATA3 and SOX4 was conducted as follows. Immunoprecipitation of FLAG-tagged GATA3 in the presence of pyrrothiogatain (0 to 100 µM) was performed by mixing recombinant FLAG-GATA3 and AGIA-SOX4 with 10 µL of anti-FLAG M2 affinity agarose gel (cat#A2220, Sigma-Aldrich) by rotation at 4 °C for 2 h. The agarose gels were washed three times, and then the immunoprecipitated protein was detected by immunoblotting using anti-FLAG M2 antibody and anti-AGIA-HRP[36].

T2 sequence (P23771 whole entry): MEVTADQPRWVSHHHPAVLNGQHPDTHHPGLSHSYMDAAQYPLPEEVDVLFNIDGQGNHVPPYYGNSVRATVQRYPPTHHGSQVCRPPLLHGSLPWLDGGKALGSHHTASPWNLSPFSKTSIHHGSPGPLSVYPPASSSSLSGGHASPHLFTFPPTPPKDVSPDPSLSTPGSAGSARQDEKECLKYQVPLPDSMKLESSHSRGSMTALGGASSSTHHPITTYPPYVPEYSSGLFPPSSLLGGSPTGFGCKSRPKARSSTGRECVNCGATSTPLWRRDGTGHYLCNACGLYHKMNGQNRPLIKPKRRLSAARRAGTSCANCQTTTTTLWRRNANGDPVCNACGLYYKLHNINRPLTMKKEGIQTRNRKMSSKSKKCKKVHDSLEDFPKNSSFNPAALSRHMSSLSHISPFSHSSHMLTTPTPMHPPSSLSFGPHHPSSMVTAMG
T1 sequence (Q04206 whole entry, species assumed): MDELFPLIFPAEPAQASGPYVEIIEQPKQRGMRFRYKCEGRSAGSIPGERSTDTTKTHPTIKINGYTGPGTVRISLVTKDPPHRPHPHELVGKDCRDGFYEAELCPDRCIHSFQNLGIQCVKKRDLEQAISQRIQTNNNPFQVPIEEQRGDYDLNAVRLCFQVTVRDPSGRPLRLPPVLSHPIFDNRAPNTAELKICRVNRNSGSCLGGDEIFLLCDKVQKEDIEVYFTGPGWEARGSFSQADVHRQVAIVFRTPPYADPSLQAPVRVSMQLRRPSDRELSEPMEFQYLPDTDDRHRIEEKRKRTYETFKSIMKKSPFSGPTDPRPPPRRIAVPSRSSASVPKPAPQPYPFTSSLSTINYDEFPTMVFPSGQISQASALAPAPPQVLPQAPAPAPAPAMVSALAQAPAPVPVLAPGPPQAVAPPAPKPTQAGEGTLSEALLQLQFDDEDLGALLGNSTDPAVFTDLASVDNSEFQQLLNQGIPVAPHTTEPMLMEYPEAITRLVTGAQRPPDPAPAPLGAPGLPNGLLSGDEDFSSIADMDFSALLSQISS

Cc1ccc(C)n1-c1ccsc1C(=O)O [Pyrrothiogatain, 3-(2,5-dimethyl-1H-pyrrol-1-yl)thiophene-2-carboxylic acid]
Interference with the RelA-DNA interaction (RelA): without interfering
Number of inflammatory cells in the bronchoalveolar lavage (BAL) fluid [1]: no significant difference; also recorded: did not significantly decrease
GATA3-dependent transcriptional activation of the IL-5 promoter [2]: significantly suppressed
GATA3-SOX4 interaction by immunoprecipitation (GATA3-SOX4 interaction): dose-dependent decrease

From article PMC6874683, “Pyrrothiogatain acts as an inhibitor of GATA family proteins and inhibits Th2 cell differentiation in vitro” (Scientific Reports, 2019)
